Experimental data from the NIST ThermoML archive (doi:10.1016/j.fluid.2007.01.001).

Assay: xn = mol fraction of the nth substance listed
Conditions: 101 kPa, Liquid; for viscosity: Capillary tube (Ostwald / Ubbelohde) method; for speed of sound: Frequency=2 MHz, Linear variable-path acoustic interferometer; for mass density: Pycnometric method

CCCCCC(C)O (stereo not given) [2-heptanol] + Cc1ccccc1
Conditions	mass density, 298.15 K [kg/m3]	mass density, 308.15 K [kg/m3]	speed of sound, 298.15 K [m/s]	speed of sound, 308.15 K [m/s]	viscosity, 298.15 K [mPa·s]	viscosity, 308.15 K [mPa·s]
x2 = 0	813.74	804.88	1314	1274	5.088	3.683
x2 = 0.0514	815.49	806.49	1309	1267	4.335	3.171
x2 = 0.1014	817.27	808.2	1303	1261	3.878	2.776
x2 = 0.1469	818.88	809.75	1298	1256	3.392	2.459
x2 = 0.2008	820.83	811.62	1293	1251	2.918	2.155
x2 = 0.2519	822.7	813.37	1288	1246	2.526	1.875
x2 = 0.3007	824.54	815.12	1283	1243	2.195	1.665
x2 = 0.348	826.33	816.85	1279	1238	1.9	1.485
x2 = 0.4006	828.45	818.86	1276	1235	1.622	1.332
x2 = 0.4526	830.61	820.97	1272	1232	1.396	1.199
x2 = 0.5002	832.62	822.92	1271	1230	1.24	1.078
x2 = 0.5501	834.9	825.13	1269	1229	1.064	0.992
x2 = 0.6011	837.36	827.5	1268	1228	0.931	0.904
x2 = 0.6574	840.16	830.22	1268	1229	0.853	0.818
x2 = 0.7011	842.5	832.53	1269	1230	0.778	0.756
x2 = 0.756	845.59	835.62	1273	1234	0.741	0.679
x2 = 0.8	848.22	838.25	1276	1238	0.691	0.641
x2 = 0.854	851.69	841.71	1283	1243	0.65	0.57
x2 = 0.9009	854.88	844.95	1289	1250	0.611	0.518
x2 = 0.9475	858.12	848.5	1296	1258	0.589	0.501

CCCCC(C)O (stereo not given) [2-hexanol] + Cc1ccccc1
Conditions	mass density, 298.15 K [kg/m3]	mass density, 308.15 K [kg/m3]	speed of sound, 298.15 K [m/s]	speed of sound, 308.15 K [m/s]	viscosity, 298.15 K [mPa·s]	viscosity, 308.15 K [mPa·s]
x2 = 0	810.84	801.75	1290	1255	4.105	2.92
x2 = 0.0497	812.91	803.69	1286	1251	3.548	2.566
x2 = 0.1007	815.08	805.85	1284	1245	3.087	2.273
x2 = 0.1588	817.53	808.16	1281	1243	2.741	1.935
x2 = 0.1993	819.29	809.89	1278	1240	2.427	1.703
x2 = 0.252	821.5	812.03	1274	1237	2.11	1.519
x2 = 0.2999	823.59	813.99	1270	1235	1.849	1.303
x2 = 0.3495	825.77	816.07	1269	1232	1.619	1.153
x2 = 0.4016	828.16	818.34	1267	1230	1.439	1.046
x2 = 0.4468	830.21	820.35	1265	1229	1.318	0.962
x2 = 0.5012	832.7	822.9	1265	1228	1.165	0.85
x2 = 0.5502	835.1	825.27	1264	1228	1.061	0.794
x2 = 0.6003	837.61	827.79	1263	1228	0.953	0.766
x2 = 0.6492	840.23	830.36	1267	1229	0.92	0.689
x2 = 0.7008	843.05	833.28	1268	1230	0.866	0.671
x2 = 0.7476	845.75	835.92	1271	1232	0.84	0.611
x2 = 0.8006	848.93	839.1	1276	1237	0.762	0.579
x2 = 0.8502	852.09	842.25	1280	1242	0.686	0.561
x2 = 0.8945	855.01	845.2	1286	1249	0.649	0.531
x2 = 0.9407	858.09	848.38	1294	1257	0.638	0.527

CCCCCCC(C)O (stereo not given) [2-octanol] + Cc1ccccc1
Conditions	mass density, 298.15 K [kg/m3]	mass density, 308.15 K [kg/m3]	speed of sound, 298.15 K [m/s]	speed of sound, 308.15 K [m/s]	viscosity, 298.15 K [mPa·s]	viscosity, 308.15 K [mPa·s]
x2 = 0	817.08	809.89	1328	1292	6.429	4.365
x2 = 0.0494	818.49	811.13	1323	1285	5.547	3.837
x2 = 0.0991	819.89	812.4	1317	1280	4.813	3.373
x2 = 0.1497	821.39	813.76	1313	1274	4.186	2.975
x2 = 0.1999	822.91	815.11	1306	1268	3.559	2.563
x2 = 0.2511	824.47	816.48	1299	1261	3.069	2.264
x2 = 0.2996	826.03	817.85	1294	1257	2.652	1.986
x2 = 0.354	827.83	819.46	1289	1250	2.239	1.685
x2 = 0.3998	829.43	820.91	1285	1247	1.966	1.488
x2 = 0.4469	831.12	822.49	1279	1243	1.69	1.276
x2 = 0.5	833.15	824.35	1277	1239	1.462	1.121
x2 = 0.5509	835.22	826.29	1273	1235	1.263	1.004
x2 = 0.5995	837.33	828.32	1271	1234	1.104	0.912
x2 = 0.6486	839.67	830.43	1270	1232	0.947	0.836
x2 = 0.701	842.33	832.94	1270	1233	0.88	0.77
x2 = 0.7477	844.88	835.37	1271	1234	0.791	0.707
x2 = 0.7989	847.89	838.32	1273	1237	0.716	0.649
x2 = 0.8513	851.18	841.6	1278	1241	0.628	0.569
x2 = 0.9	854.46	844.93	1286	1247	0.636	0.573
x2 = 0.9511	858.12	848.66	1294	1255	0.574	0.506
